This is an account of results in ChEMBL document CHEMBL1201862, “PubChem BioAssay data set” (2004).

Some targets named below: Cytochrome P450 2C9 (Homo sapiens, UniProt P11712); Cytochrome P450 2D6 (Homo sapiens, UniProt P10635); Cytochrome P450 3A4 (Homo sapiens, UniProt P08684).
Series [1] in a line: NIH-3T3 fibroblast cytotoxicity, dose response, cytotoxicity control, cell-based, fluorescence, Alamar Blue, secondary assay (AID 2327).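 Note: NIH-3T3 mouse fibroblasts cultured with fluconazole at 8 µg/mL.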 Format: functional.
The nature of series [2]: C. albicans growth with fluconazole, confirmation, fluorescence, retest (AID 2467). Format: functional, cell-based.
The target of another series is Cytochrome P450 2C19 (Homo sapiens, UniProt P33261). In words: Cytochrome panel assay with activity outcomes. Panel member name: p450-cyp2c19 Compounds with AC50 equal or less than 10 uM are considered active. Format: functional.
The next series addresses T1, Cytochrome P450 1A2 (Homo sapiens, UniProt P05177).
T1 sequence (P05177 whole entry): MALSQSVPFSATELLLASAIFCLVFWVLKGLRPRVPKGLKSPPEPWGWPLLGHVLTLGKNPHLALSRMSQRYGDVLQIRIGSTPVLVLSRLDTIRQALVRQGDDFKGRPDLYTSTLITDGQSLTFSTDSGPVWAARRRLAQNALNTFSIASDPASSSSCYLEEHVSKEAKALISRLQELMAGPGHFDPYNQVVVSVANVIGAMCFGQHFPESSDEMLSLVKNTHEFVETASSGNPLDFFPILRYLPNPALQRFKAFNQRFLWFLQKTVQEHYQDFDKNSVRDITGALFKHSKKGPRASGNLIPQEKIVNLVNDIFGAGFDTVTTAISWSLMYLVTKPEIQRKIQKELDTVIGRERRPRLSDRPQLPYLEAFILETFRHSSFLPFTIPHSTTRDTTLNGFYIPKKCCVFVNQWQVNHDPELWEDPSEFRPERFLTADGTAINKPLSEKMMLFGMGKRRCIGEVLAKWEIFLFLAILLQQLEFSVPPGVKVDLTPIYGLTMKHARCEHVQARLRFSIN

A further series concerns INS1. The series is described as follows: beta cell apoptosis inhibitors, cytokine rescue, dose response, luminescence, retest (AID 449756).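 Note: cell death triggered by IL-1 beta plus TNF-alpha plus IFN-gamma mixture; protective hits raise ATP signal compared with cytokine alone wells.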 Format: functional, cell-based. Conditions: Rattus norvegicus.
In the next series the target is T2, Streptokinase A (Streptococcus pyogenes serotype M1, UniProt P10520).
T2 sequence (P10520 whole entry): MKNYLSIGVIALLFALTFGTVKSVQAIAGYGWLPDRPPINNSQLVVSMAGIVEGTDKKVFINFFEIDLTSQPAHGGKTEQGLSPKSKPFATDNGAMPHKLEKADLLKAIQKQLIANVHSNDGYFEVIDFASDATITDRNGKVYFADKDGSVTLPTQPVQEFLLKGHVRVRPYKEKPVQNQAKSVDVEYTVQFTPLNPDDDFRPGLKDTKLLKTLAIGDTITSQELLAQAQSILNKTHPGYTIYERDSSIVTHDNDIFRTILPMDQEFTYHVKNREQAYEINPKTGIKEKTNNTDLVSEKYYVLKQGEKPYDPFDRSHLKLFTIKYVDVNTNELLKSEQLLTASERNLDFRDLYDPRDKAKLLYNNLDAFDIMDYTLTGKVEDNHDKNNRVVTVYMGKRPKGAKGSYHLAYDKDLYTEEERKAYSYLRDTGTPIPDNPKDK
The series is described as follows: S. pyogenes streptokinase expression inhibitors, potency, dose response, plasminogen activation absorbance, OD405 (AID 1914).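 Note: secreted streptokinase activity via plasminogen activation per viability signal from cell pellet.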 Format: functional, Streptococcus pyogenes M1 GAS.

For the next series, the system named is Streptococcus. In words: Group A Streptococcus viability loss, dose response, counter-screen for streptokinase expression inhibitor project, luminescence, BacTiterGlo (AID 1915).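 Note: potency for reduction of bacterial viability or growth.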 Format: functional, organism-based.
For series [3], the system named is Streptococcus sp. 'group A'. The series is described as follows: growth inhibition of control SK(-) GAS strain, dose response, counter-screen for streptokinase expression inhibitor project, luminescence, kanamycin, BacTiterGlo, confirmation (AID 1900). Format: functional, organism-based. Background: Counterscreens check selectivity or assay interference.
Series [4] is described as follows: control 3'UTR Renilla luciferase suppression, dose response, counter-screen for Shn3 inhibitor project, cell-based, Clone20-Shn3RL, cherry-picked (AID 624133). Format: functional.
Series [5] is described as follows: Shn3 3'UTR reporter inhibitors, dose response, cell-based, Clone20 osteoblasts, firefly luciferase, cherry-picked (AID 624132).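 Note: firefly luciferase luminescence from reporter carrying the Shn3 3'UTR in osteoblasts.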 Format: functional.
Series [6] can be described thus: cytotoxicity toward NIH3T3 fibroblasts, dose response, counter-screen, cell-based, ATP luminescence, mouse fibroblasts (AID 2010).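 Note: cells exposed to compound for about 90 hours before reading.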 Format: functional.
A short description of series [7]: inhibitors of intracellular T. cruzi replication, confirmation, NIH3T3 host cells, beta-gal luminescence (AID 2044).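 Note: intracellular parasites grown in NIH/3T3 mouse fibroblasts as host cells; luminescent beta-galactosidase reporter signal from transgenic T. cruzi replicating inside host cells; inhibitors lower the luminescence signal.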 Format: functional, cell-based.

Active and inactive are the calls of the source. Where only a bound is given, the exact number is not on record here.

Chain of Cytochrome P450 2C19 (P33261 whole entry): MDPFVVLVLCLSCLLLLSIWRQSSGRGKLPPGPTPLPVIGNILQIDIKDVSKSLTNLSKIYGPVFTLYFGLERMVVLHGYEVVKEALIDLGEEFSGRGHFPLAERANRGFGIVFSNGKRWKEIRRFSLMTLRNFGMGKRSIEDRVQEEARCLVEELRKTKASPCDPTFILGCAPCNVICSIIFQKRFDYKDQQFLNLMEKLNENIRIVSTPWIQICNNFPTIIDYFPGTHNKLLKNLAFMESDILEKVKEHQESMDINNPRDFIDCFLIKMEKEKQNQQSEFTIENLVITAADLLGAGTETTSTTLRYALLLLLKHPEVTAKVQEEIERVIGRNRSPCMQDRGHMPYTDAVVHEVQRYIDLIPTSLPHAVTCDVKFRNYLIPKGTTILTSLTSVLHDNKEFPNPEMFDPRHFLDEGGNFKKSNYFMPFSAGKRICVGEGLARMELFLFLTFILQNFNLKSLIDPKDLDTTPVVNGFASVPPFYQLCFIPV
Chain of Cytochrome P450 2C9 (P11712 whole entry): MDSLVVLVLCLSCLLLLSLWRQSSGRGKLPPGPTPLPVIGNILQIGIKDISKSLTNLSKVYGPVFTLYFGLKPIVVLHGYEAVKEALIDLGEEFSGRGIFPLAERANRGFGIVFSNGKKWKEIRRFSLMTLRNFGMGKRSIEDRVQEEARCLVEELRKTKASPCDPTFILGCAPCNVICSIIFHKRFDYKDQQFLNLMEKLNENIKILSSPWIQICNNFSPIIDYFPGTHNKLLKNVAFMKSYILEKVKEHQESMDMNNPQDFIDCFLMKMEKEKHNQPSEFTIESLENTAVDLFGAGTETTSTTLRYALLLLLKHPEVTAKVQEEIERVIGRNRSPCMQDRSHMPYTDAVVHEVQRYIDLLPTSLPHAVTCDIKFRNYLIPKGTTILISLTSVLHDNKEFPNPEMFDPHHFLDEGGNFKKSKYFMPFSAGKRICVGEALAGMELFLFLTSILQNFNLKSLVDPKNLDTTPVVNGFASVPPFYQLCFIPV
Chain of Cytochrome P450 2D6 (P10635 whole entry): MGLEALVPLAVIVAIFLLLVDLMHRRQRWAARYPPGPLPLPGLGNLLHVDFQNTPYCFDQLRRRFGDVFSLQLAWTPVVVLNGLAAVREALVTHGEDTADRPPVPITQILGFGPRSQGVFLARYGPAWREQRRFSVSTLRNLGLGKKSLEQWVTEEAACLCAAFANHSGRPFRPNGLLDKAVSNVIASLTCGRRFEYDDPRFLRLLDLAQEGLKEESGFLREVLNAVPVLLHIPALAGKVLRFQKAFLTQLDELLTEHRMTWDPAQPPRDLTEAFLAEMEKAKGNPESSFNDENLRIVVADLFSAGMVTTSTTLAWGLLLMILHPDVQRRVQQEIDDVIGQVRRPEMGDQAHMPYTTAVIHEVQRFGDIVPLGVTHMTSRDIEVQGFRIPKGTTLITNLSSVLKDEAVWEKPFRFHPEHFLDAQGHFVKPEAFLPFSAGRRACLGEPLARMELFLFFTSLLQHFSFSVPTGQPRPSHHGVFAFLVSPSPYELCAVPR
Chain of Cytochrome P450 3A4 (P08684 whole entry): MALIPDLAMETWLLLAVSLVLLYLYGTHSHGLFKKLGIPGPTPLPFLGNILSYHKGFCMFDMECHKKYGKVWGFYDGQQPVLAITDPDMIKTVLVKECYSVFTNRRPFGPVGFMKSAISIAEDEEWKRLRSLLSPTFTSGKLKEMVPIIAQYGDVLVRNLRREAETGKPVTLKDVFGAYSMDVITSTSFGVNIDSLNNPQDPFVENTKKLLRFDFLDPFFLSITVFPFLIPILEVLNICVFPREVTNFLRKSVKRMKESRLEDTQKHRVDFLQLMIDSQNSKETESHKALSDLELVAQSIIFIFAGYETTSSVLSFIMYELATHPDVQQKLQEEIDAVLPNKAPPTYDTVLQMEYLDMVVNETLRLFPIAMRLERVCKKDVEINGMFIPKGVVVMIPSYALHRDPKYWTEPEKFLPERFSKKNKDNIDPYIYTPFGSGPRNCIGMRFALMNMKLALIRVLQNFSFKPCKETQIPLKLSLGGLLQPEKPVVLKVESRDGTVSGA

By AC50 is commonly meant the concentration at which the activity in the assay is half-maximal. Turning to `O=c1ccc2[nH]cc(C3=CCNCC3)c2[nH]1`, the AC50 on Cytochrome P450 2C9 is 7.94 µM (inconclusive).
On to `CS(=O)(=O)N1CCC2(CCN(Cc3ccncc3)CC2)CC1`, for which the figures for the AC50 on Cytochrome P450 2D6, at Cytochrome P450 3A4 and at Cytochrome P450 2C9 were 25.1 µM (inconclusive), 12.6 µM (inconclusive) and 31.6 µM (inconclusive), respectively.
Turning to `COc1ccc2[nH]cc(CCNc3ncnc4ccc(-c5c(C)noc5C)cc34)c2c1`, at Cytochrome P450 2C9, the AC50 is 0.501 µM (inconclusive).
The EC50 is the concentration that produces a half-maximal response. For the molecule `Cc1ccc(-c2nnc(Nc3ccccc3)c3ccccc23)cc1S(=O)(=O)NCC1CCCO1` (stereo unspecified), the half-maximal effective concentration (EC50) in series [1] was 25 µM (active); in series [2], 5.07 µM (active).
Consider `CN1c2ccccc2C(O)=C(C(=O)Nc2ccccc2)S1(=O)=O`, for which the values for the concentration at half-maximal activity (AC50) at Cytochrome P450 3A4 and at Cytochrome P450 2C19 were 39.8 µM (inconclusive) and “inconclusive”, respectively.
`CO[C@@H](C)[C@](O)(C(=O)OCC1=CCN2CC[C@@H](O)[C@H]12)C(C)C`: the figures for the AC50 on Cytochrome P450 2D6 and at Cytochrome P450 2C19 were 3.98 µM (inconclusive) and “inconclusive”, respectively.
Consider `CCN(CC)c1nc(N)c2c(N)nc3c(c2c1C#N)CC(c1ccccc1)O3` (stereo unspecified), for which the EC50 was > 160 µM (inactive) in series [1] and > 38 µM (not active) in series [2].
Take `COc1ccc(-c2nc(-c3ccncc3)no2)cc1OC`: the EC50 in series [1] was > 160 µM (inactive); in series [2], 5.21 µM (active).
Consider `CN1CCC(=C2c3ccccc3Sc3ccccc32)CC1` [PIMETHIXENE], for which the AC50 on Cytochrome P450 2C19 (read-out: AC50) was 15.8 µM (inconclusive).
With `Cc1ccc(C(=O)Cn2cccn2)cc1`, the EC50 in series [1] is > 160 µM (inconclusive); in series [2] it was > 38 µM (not active).
As to `CCOC(=O)c1sc(NC(C)=O)nc1-c1ccccc1`, at Cytochrome P450 2C19 (read-out: AC50), the AC50 is 10 µM (inconclusive).
On to `CCOC(=O)CSc1n[nH]c(-c2cccnc2)n1`, for which the AC50 at Cytochrome P450 3A4 is 15.8 µM (inconclusive); at Cytochrome P450 2C19 (read-out: AC50), 11.2 µM (inconclusive).
For `Cn1c(CCN2CCCCC2)nc2cc([N+](=O)[O-])ccc21`, the AC50 on Cytochrome P450 2D6 was 14.1 µM (inconclusive); on Cytochrome P450 2C19, “inconclusive”.
Turning to `C/C(=N\NC(=O)c1cccc(Br)c1)c1ccc(Br)cc1`, the AC50 was 28.2 µM (inconclusive) at Cytochrome P450 3A4 and 0.224 µM (inconclusive) at Cytochrome P450 2C19 (read-out: AC50).
With `CC(C)(C)c1ccc(OCC(=O)NNC(=O)Cc2cccs2)cc1`, the AC50 is 28.2 µM (inconclusive) at Cytochrome P450 1A2 and 20 µM (inconclusive) on Cytochrome P450 2C19 (read-out: AC50).
Turning to `O=C(Oc1c(Cl)cc(Cl)c2cccnc12)N1CCOCC1`, the EC50 in [1] is > 150 µM (inactive); in series [2], > 38 µM (not active).
For the molecule `CCN(CC)S(=O)(=O)c1cccc(NC(=O)c2cc(-c3cccs3)nn2-c2ccccc2)c1`, the AC50 in the series with INS1 was 10.3 µM (active).
For the molecule `Oc1c(Br)cc(Br)cc1Oc1ccc(Br)cc1Br`, the EC50 in series [1] was > 150 µM (inactive); at Streptokinase A, 0.753 µM (active); with Streptococcus, 2.73 µM (active); in [3], 1.33 µM (active); in series [2], > 38 µM (not active).
Take `O=P([O-])([O-])C(Cl)(Cl)P(=O)(O)O.[Na+].[Na+]` [CLODRONATE DISODIUM]: at Cytochrome P450 2C19, the AC50 result is on record as “inconclusive”.
Take `C/C(=N\O)c1cc(Cl)cc(Cl)c1O`: the EC50 in series [1] was > 160 µM (inactive); in series [2], 4.41 µM (active).
As for `COc1cccc(-c2ccc3ncnc(Nc4ccccc4)c3c2)c1`, the AC50 on Cytochrome P450 2C9 was 0.631 µM (inconclusive).
Same read-out and setting: with `N#CC(C#N)=Cc1cc(O)c(O)c(O)c1` [TYRPHOSTIN 25] the figure was 15.8 µM (inconclusive).
For the molecule `O=C(CNC(=O)c1ccc2c(c1)OCO2)N/N=C/c1cc(Br)ccc1O`, in the series with INS1, the AC50 was 3.36 µM (active). Also, the EC50 at Streptokinase A is > 150 µM (not active); with Streptococcus, 25.2 µM (inconclusive); in series [3], 10.1 µM (active).
Regarding `COC(=O)[C@@]1(Cc2ccc(OC)cc2)[C@H]2c3cc(C(=O)N4CCCC4)n(Cc4nc5ccccc5[nH]4)c3C[C@H]2CN1C(=O)c1ccccc1`, the AC50 on Cytochrome P450 2C19 (read-out: AC50) was 20 µM (inconclusive).
With `COCCn1c(=O)c(-c2ccc(Cl)cc2)nc2cnc(OC)nc21`, the AC50 at Cytochrome P450 2D6 is 25.1 µM (inconclusive); on Cytochrome P450 2C9 it was 39.8 µM (inconclusive).
In the case of `COc1ccc(C2N=C(Nc3ccc(C)cc3)Nc3nc(C)cc(=O)n32)cc1` (stereo unspecified), the EC50 in [1] is > 160 µM (inactive); in series [2] it was > 38 µM (not active).
Consider `Cc1ccc(-c2c[n+](-c3ccc(OC(F)F)cc3)c3n2CCCCC3)cc1`, for which the EC50 in series [1] was > 150 µM (inconclusive); in [2], > 38 µM (not active). In addition, the AC50 in the series with INS1 is 1.52 µM (active).
Take `N=c1c2ccccc2nc2n1CCCCCCCCCCC2`: in the series with INS1, the half-maximal activity concentration (AC50) was 9.52 µM (active).
Turning to `CC(=O)NCCNc1nc(-c2cccc(NS(C)(=O)=O)c2)nc2ccccc12`, the half-maximal activity concentration (AC50) is 10 µM (inconclusive) on Cytochrome P450 2D6 and 39.8 µM (inconclusive) at Cytochrome P450 2C19 (read-out: AC50).
With `COCc1nnc(NC(=O)CCN2C(=O)c3ccccc3C2=O)s1`, the AC50 was 17.8 µM (inconclusive) on Cytochrome P450 2D6 and 31.6 µM (inconclusive) at Cytochrome P450 2C9.
Regarding `CCc1ccc(OCC(=O)NC(=S)Nc2ccc(F)cc2)c(Br)c1`, the half-maximal activity concentration (AC50) on Cytochrome P450 1A2 and on Cytochrome P450 2C9 was 3.16 µM (inconclusive) each time.
Turning to `COc1ccc(NC(=O)N2CCCC3(CCN(C(=O)c4ccc(OC)cc4)CC3)C2)cc1`, the AC50 on Cytochrome P450 2C9 was 39.8 µM (inconclusive).
Consider `CCCNC(=O)Cn1cnc2sc(C(=O)Nc3ccc4c(c3)OCO4)c(C)c2c1=O`, for which the AC50 is 5.01 µM (inconclusive) on Cytochrome P450 2D6, 1.41 µM (inconclusive) on Cytochrome P450 3A4 and 0.00562 µM (inconclusive) on Cytochrome P450 2C19 (read-out: AC50).
On to `C=C1C(=O)C23C(O)C1CCC2C12COC3(O)C(O)C1C(C)(C)CCC2O` (stereo unspecified), for which the AC50 in series [4] was 8.14 µM (active); in [5], 3.3 µM (active).
Turning to `Cc1cccc(CSc2nc(N)c(C#N)c(-c3cccs3)c2C#N)c1`, the EC50 at Streptokinase A is 4.93 µM (active); with Streptococcus, > 150 µM (not active); in series [6], > 60 µM (inconclusive); in series [7], 2.31 µM (active); in series [3], 5.04 µM (active).
In the case of `COc1ccc(NC(=O)COC(=O)Cn2c(C)nc3ccccc32)cc1OC`, the AC50 at Cytochrome P450 2C19 (read-out: AC50) was 3.55 µM (inconclusive).
For `CC(C)c1ccc(COc2ccc(C(=O)N3CCOCC3)cc2)cc1`, the AC50 in the series on INS1 was 9.42 µM (active).
Regarding `Cc1ccc(-n2c(-c3ccccc3)cc(=O)nc2C)cc1`, the half-maximal activity concentration (AC50) at Cytochrome P450 2C9 is 7.08 µM (inconclusive).
Consider `COc1ccc(NS(=O)(=O)c2cccc(NC(=O)CCC(=O)c3ccc(Cl)cc3)c2)cc1`, for which the EC50 at Streptokinase A is > 150 µM (not active); in the series with Streptococcus it was 25.3 µM (active); in series [3], 11.2 µM (active).
`CN(Cc1ccco1)c1ncnc2ccc(-c3cccc(NS(C)(=O)=O)c3)cc12`: the AC50 on Cytochrome P450 2C9 was 0.794 µM (inconclusive).
Still for that read-out and setting: under `COc1ccc(OCCNS(=O)(=O)c2ccc3oc4ccccc4c3c2)cc1` stands 2.51 µM (inconclusive).
For `Cc1ccc(-c2csc(NNC(=O)c3ccccc3)n2)cc1`, the EC50 on Streptokinase A was > 150 µM (not active); in the series on Streptococcus it was > 150 µM (not active); in series [3], 4.37 µM (active).
